# Measurements from patent US20050215520A1, “Complex of organic medicines and beta-cyclodextrin derivatives and its preparing process” (priority 2002, published 2005).
# System: plasmodium
# Assay: Medicine efficacy on killing plasmodium in mice infected plasmodium
# Format: in vivo
# Settings: ED90 of original medicine p.o. relative to its complex iv (complex = 1)
row,Molecule,ED90 comparison p.o./iv
1,C[C@@H]1CC[C@H]2[C@@H](C)C(=O)O[C@@H]3O[C@@]4(C)CC[C@@H]1[C@]32OO4 [Artemisinin],2.13
2,C[C@H]1[C@H](OC(=O)CCC(=O)O)O[C@@H]2O[C@@]3(C)CC[C@H]4[C@H](C)CC[C@@H]1[C@@]24OO3 [Artesunate],1.88

# Same assay, conditions: Plasmodium, po, read-out: efficacy (killing) ED50
row,Molecule,ED50
1,C[C@H]1[C@H](OC(=O)CCC(=O)O)O[C@@H]2O[C@@]3(C)CC[C@H]4[C@H](C)CC[C@@H]1[C@@]24OO3 [Artesunate],9.96 mg/kg

# Same assay, conditions: mice infected plasmodium, route of administration po.; read-out: efficacy (killing) ED50
row,Molecule,ED50
1,C[C@@H]1CC[C@H]2[C@@H](C)C(=O)O[C@@H]3O[C@@]4(C)CC[C@@H]1[C@]32OO4 [Artemisinin],19 mg/kg

# System: not listed separately
# Assay: Critical mole ratio or critical mass ratio of medicines and beta-cyclodextrin derivative (Table 1, examples)
# Format: physicochemical
# Settings: not given
# Method: The critical mole ratio or critical mass ratio in the present invention refers to the mole ratio and mass ratio when complex of organic medicine and beta-cyclodextrin derivatives prepared with the method of this invention is dissolved exactly in water of specified amount to form stable aqueous solution.
# The critical value of organic medicine and beta-cyclodextrin derivatives in the present invention, may be determined with the undermentioned unit test method.
# (§1) All kinds of mole ratio and mass ratio of the medicine and beta-cyclodextrin derivative is made into complex with expanding loose body according to the method of the present invention, then the set water is added into the a variety of compounding ratio of complex, and by observing properties of the solution, the compounding ratio of exactly dissolving in water and with stable property, acts as the critical mole ratio or critical mass ratio of the present invention.
# The critical mole ratio and critical mass ratio in the present invention may be determined with the undermentioned saturated solution method.
# Weighing accurately medicine, and placing in the container, and gradually adding beta-cyclodextrin aqueous solution metered accurately with agitation, until the medicine is dissolved exactly and completely in this aqueous solution. Calculate both mass number here and convert it to mole number. Repeat the above-mentioned test, and get the mean mole number of repeated test, and calculate critical mole ratio with the undermentioned formula: Critical mole ratio of medicine=mean mole number of beta-cyclodextrin/mean mole number of medicine
row,Molecule,Critical value mole ratio
1,CN1C(=O)CN=C(c2ccccc2)c2cc(Cl)ccc21 [Diazepam],3
2,C[C@]12CC[C@H]3[C@@H](CCC4=CC(=O)CC[C@@]43C)[C@@H]1CC[C@@H]2O [testosterone],4

# Same assay, conditions: beta-cyclodextrin derivative (hydroxide propyl beta-cyclodextrin in the examples) to medicine; complex dissolves exactly in water to stable solution
Molecule,Critical value mole ratio,Critical value Mass ratio
CC1(C)S[C@@H]2[C@H](NC(=O)[C@H](N)c3ccccc3)C(=O)N2[C@H]1C(=O)O [Ampicilline],3,–
C[C@@H]1CC[C@H]2[C@@H](C)C(=O)O[C@@H]3O[C@@]4(C)CC[C@@H]1[C@]32OO4 [Artemisinin],5,–
C[C@H]1[C@H](OC(=O)CCC(=O)O)O[C@@H]2O[C@@]3(C)CC[C@H]4[C@H](C)CC[C@@H]1[C@@]24OO3 [Artesunate],3,–
CC[C@H]1OC(=O)[C@H](C)[C@@H](O[C@H]2C[C@@](C)(OC)[C@@H](O)[C@H](C)O2)[C@H](C)[C@@H](O[C@@H]2O[C@H](C)C[C@H](N(C)C)[C@H]2O)[C@](C)(O)C[C@@H](C)CN(C)[C@H](C)[C@@H](O)[C@]1(C)O [Azithromycin],16,–
CN(Cc1cc(Br)cc(Br)c1N)C1CCCCC1 [Bromhexine],3,–
CS(=O)(=O)OCCCCOS(C)(=O)=O [Busulfan],5,–
O=C(O)c1cn(C2CC2)c2cc(N3CCNCC3)c(F)cc2c1=O [Ciprofloxacin],5,–
CC[C@H]1OC(=O)[C@H](C)[C@@H](O[C@H]2C[C@@](C)(OC)[C@@H](O)[C@H](C)O2)[C@H](C)[C@@H](O[C@@H]2O[C@H](C)C[C@H](N(C)C)[C@H]2O)[C@](C)(OC)C[C@@H](C)C(=O)[C@H](C)[C@@H](O)[C@]1(C)O [Clarithromycin],18,–
Clc1ccccc1C(c1ccccc1)(c1ccccc1)n1ccnc1 [Clotrimazole],4,–
CC(CN1c2ccccc2S(=O)(=O)c2ccccc21)N(C)C (centres unmarked) [Dioxopromethazine],–,2
CC[C@H]1OC(=O)[C@H](C)[C@@H](O[C@H]2C[C@@](C)(OC)[C@@H](O)[C@H](C)O2)[C@H](C)[C@@H](O[C@@H]2O[C@H](C)C[C@H](N(C)C)[C@H]2O)[C@](C)(O)C[C@@H](C)C(=O)[C@H](C)[C@@H](O)[C@]1(C)O [Erythromycin],6,–
Clc1ccc2c(c1)C(c1ccccc1)=NCc1nncn1-2 [Estazolam],–,20
COc1cc([C@@H]2c3cc4c(cc3[C@@H](O[C@@H]3O[C@@H]5CO[C@@H](C)O[C@H]5[C@H](O)[C@H]3O)[C@H]3COC(=O)[C@H]23)OCO4)cc(OC)c1O [Etoposide],10,–
CC(C)Cc1ccc(C(C)C(=O)O)cc1 (centres unmarked) [Ibuprofen],–,8
CC(=O)N1CCN(c2ccc(OCC3COC(Cn4ccnc4)(c4ccc(Cl)cc4Cl)O3)cc2)CC1 (centres unmarked) [Ketoconazole],3,–
CCN1C[C@]2(OC(=O)c3ccccc3NC(C)=O)CC[C@H](OC)[C@@]34[C@@H]2C[C@@H]([C@@H]13)[C@@]1(O)C[C@H](OC)[C@H]2C[C@@H]4[C@]1(O)[C@H]2OC [Lappaconitine],2,–
O=C1Nc2ccc(Cl)cc2C(c2ccccc2Cl)=NC1O (centres unmarked) [Lorazepam],3,–
CC[C@H](C)C(=O)O[C@H]1C[C@@H](C)C=C2C=C[C@H](C)[C@H](CC[C@@H]3C[C@@H](O)CC(=O)O3)[C@H]21 [Lovastatin],26,–
Cc1ncc([N+](=O)[O-])n1CCO [Metronidazole],–,9
Clc1ccc(COC(Cn2ccnc2)c2ccc(Cl)cc2Cl)c(Cl)c1 (centres unmarked) [Miconazole],6,–
CN1C(C(=O)Nc2ccccn2)=C(O)c2ccccc2S1(=O)=O [Piroxicam],–,15
C[C@]12CC[C@H](O)CC1=CC[C@@H]1[C@@H]2CC[C@]2(C)C(=O)CC[C@@H]12 [Prasterone],3,–
COc1cc2c(cc1OC)[C@@H]1Cc3ccc(OC)c(OC)c3CN1CC2 [Rotundine],1,–
CC[C@H]1OC(=O)[C@H](C)[C@@H](O[C@H]2C[C@@](C)(OC)[C@@H](O)[C@H](C)O2)[C@H](C)[C@@H](O[C@@H]2O[C@H](C)C[C@H](N(C)C)[C@H]2O)[C@](C)(O)C[C@@H](C)/C(=N\OCOCCOC)[C@H](C)[C@@H](O)[C@]1(C)O [Roxithromycin],18,–
CC(C)CC(N(C)C)C1(c2ccc(Cl)cc2)CCC1 (centres unmarked) [Sibutramine],–,2
CCCc1nn(C)c2c(=O)[nH]c(-c3cc(S(=O)(=O)N4CCN(C)CC4)ccc3OCC)nc12 [Sildenafil],2,–
COc1cc(Cc2cnc(N)nc2N)cc(OC)c1OC [TMP],3,–
CC/C(=C(\c1ccccc1)c1ccc(OCCN(C)C)cc1)c1ccccc1 [Tamoxifen],2,–

Molecule,Critical value mole ratio,Critical value Mass ratio
CC(=O)O[C@H]1C(=O)[C@@]2(C)[C@H]([C@H](OC(=O)c3ccccc3)[C@]3(O)C[C@H](OC(=O)[C@H](O)[C@@H](NC(=O)c4ccccc4)c4ccccc4)C(C)=C1C3(C)C)[C@]1(OC(C)=O)CO[C@@H]1C[C@@H]2O [Taxol],100,–
CCS(=O)(=O)CCn1c([N+](=O)[O-])cnc1C [Tinidazole],–,6.5
Cc1ccc(-c2nc3ccc(C)cn3c2CC(=O)N(C)C)cc1 [Zolpidem],2,–
CC1(C)C2CCC1(C)C(O)C2 (centres unmarked) [borneol],–,6
Cn1c(=O)c2c(ncn2C)n(C)c1=O [caffein],–,4
CC12CCC(CC1=O)C2(C)C (centres unmarked) [camphor],–,8
CC(C)(O)C(Cl)(Cl)Cl [chlorbutanol],–,6
OC(CCCN1CCCCC1)(c1ccccc1)c1ccccc1 [difenidol],1,–
NC(N)=Nc1nc(CSCCC(N)=NS(N)(=O)=O)cs1 [famotidine],–,9
Cc1ccc(S(=O)(=O)NC(=O)NN2CC3CCCC3C2)cc1 (centres unmarked) [gliclazide],2,–
CN1CCC(=C2c3ccccc3CC(=O)c3sccc32)CC1 [ketotifen],–,4
Cc1nc(C)c(C)nc1C [ligustrazine],–,12
O=C(O)CCCC[C@@H]1CCSS1 [lipoic acid],1,–
CC1CCC(C(C)C)C(O)C1 (centres unmarked) [menthol],2,–
CCOC(=O)[N-]c1cn(N2CCOCC2)n[o+]1 [molsidomine],–,11
CCn1cc(C(=O)O)c(=O)c2cc(F)c(N3CCNCC3)cc21 [norfloxacin],–,30
CC(=O)Nc1ccc(O)cc1 [paracetamol],–,3
C[C@]12C=CC(=O)C=C1CC[C@@H]1[C@@H]2C(=O)C[C@@]2(C)[C@H]1CC[C@]2(O)C(=O)CO [prednisone],4,–
CC(=O)S[C@@H]1CC2=CC(=O)CC[C@]2(C)[C@H]2CC[C@@]3(C)[C@@H](CC[C@@]34CCC(=O)O4)[C@H]12 [spironolactone],3,–
Nc1ccc(S(=O)(=O)Nc2ncccn2)cc1 [sulfadiazine],3,–
Cc1noc(NS(=O)(=O)c2ccc(N)cc2)c1C [sulfafurazole],2,–
Cc1cc(NS(=O)(=O)c2ccc(N)cc2)no1 [sulfamethoxazole],2,–
NC(=O)CCCCC1CCSS1 (centres unmarked) [thioctamide],–,7
COc1cc(C=O)ccc1O [vanillin],–,9
Artemoter,8,–
Medicamycin,8,–
Oryzanol,–,38

# System: not given
# Assay: not given
# Settings: medicine alone; cited from earlier work
row,Molecule,water solubility of the medicine
1,C[C@@H]1CC[C@H]2[C@@H](C)C(=O)O[C@@H]3O[C@@]4(C)CC[C@@H]1[C@]32OO4 [Artemisinin],hardly water-soluble

# System: not listed separately
# Assay: Critical mole ratio by saturated solution method
# Format: physicochemical
# Settings: 40% hydroxide propyl beta-cyclodextrin aqueous solution, mean of 3 tests
# Method: The critical mole ratio and critical mass ratio in the present invention may be determined with the undermentioned saturated solution method. Weighing accurately medicine, and placing in the container, and gradually adding beta-cyclodextrin aqueous solution metered accurately with agitation, until the medicine is dissolved exactly and completely in this aqueous solution. Calculate both mass number here and convert it to mole number. Repeat the above-mentioned test, and get the mean mole number of repeated test, and calculate critical mole ratio with the undermentioned formula: Critical mole ratio of medicine=mean mole number of beta-cyclodextrin/mean mole number of medicine For example, critical mole ratio of Artemisinin and hydroxide propyl beta-cyclodextrin is measured with the undermentioned method: Weight accurately Artemisinin, and grind in tissue grinding device, and place in beaker, and gradually add 40% hydroxide propyl beta-cyclodextrin aqueous solution metered accurately while agitation, until Artemisinin is dissolved exactly and completely in this aqueous solution. Calculate both mass number here and convert it to mole number.
row,Molecule,critical mole ratio
1,C[C@@H]1CC[C@H]2[C@@H](C)C(=O)O[C@@H]3O[C@@]4(C)CC[C@@H]1[C@]32OO4 [Artemisinin],about 5

# System: not listed separately
# Assay: Critical value of complex by unit test method (complexes of various compounding ratio dissolved in set water, solution properties observed)
# Format: physicochemical
# Settings: hydroxide propyl beta-cyclodextrin to medicine
# Method: as §1, with “The critical value of organic medicine and beta-cyclodextrin derivatives in the present invention, may be determined with the undermentioned unit test method. All” for “All”
Molecule,critical mass ratio of complex,critical mole ratio of complex
C[C@@H]1CC[C@H]2[C@@H](C)C(=O)O[C@@H]3O[C@@]4(C)CC[C@@H]1[C@]32OO4 [Artemisinin],about 28,about 5
